# Measurements published in patent US20260109707A1, “HETEROBIFUNCTIONAL COMPOUNDS AND METHODS OF TREATING DISEASE” (Halda Therapeutics OpCo. Inc., priority 2022, published 2026).
# Like-named read-outs stand apart in the source and are kept apart here.
# Experiments:
# VCaP cells = test: Cellular growth inhibition assay for VCaP cells (CellTiter-Glo, 72 hours); type: cell-based, human
# Description: VCaP cells were purchased from American Type Cell Culture (ATCC Cat #CRL2876) and then seeded on poly-D-lysine coated, black clear-bottom 384-well plates at 5000/well in 25 μL Dulbecco's Modified Eagle Medium (DMEM) supplemented with 10% w/w Fetal bovine serum (FBS) and 1% w/w Pen-Strep. Pen-Strep is a commercially available mixture of penicillin G and streptomycin, which is used in mammalian cell culture media to prevent bacterial contamination. Dulbecco's Modified Eagle Medium (DMEM) supplemented with 10% w/w fetal bovine serum (FBS) and 1% w/w Pen-Strep is herein referred to as Treatment Medium. Following seeding of cells in the plates, the plates were spun at 300×g for 30 seconds, then equilibrated to room temperature for 30 minutes, and then deposited in a humidified tissue culture incubator maintained at 37° C. with 5% C0-2.
# (§1) At 24 hours after seeding of the cells, dilutions of test compound were prepared in DMSO and dissolved in Treatment Medium, to achieve a final DMSO concentration of 0.5% w/w, thereby providing the Test Compound Solution. A 25 μL aliquot of the Test Compound Solution was added to cells in the well plates. An equal volume of a solution containing DMSO and Treatment Medium was used as a negative control. Following treatment of cells with Test Compound Solution or said equal volume of a solution containing DMSO and Treatment Medium, the plates were spun at 300×g for 30 seconds, and then left in an incubator for 72 hours.
# (§2) At the end of the treatment duration, cell viability was quantified with CellTiter-Glo 2.0 reagent (Promega Cat #G9243). For this purpose, plates were equilibrated to room temperature for 30 minutes, and then 25 μL of CellTiter-Glo 2.0 reagent was added to cells in the plate wells. Plates were then agitated on a shaker for two minutes at 500 rpm and subsequently incubated at room temperature for 10 minutes. Following incubation, the plates were spun at 3000×g for 30 seconds, then sealed with an optical adhesive cover, and luminescence readings were measured with an EnVision Plate Reader.
# (§3) Data was normalized using zero luminescence for baseline. A four-parameter non-linear regression curve fit was applied to dose-response data in GraphPad Prism data analysis software to determine the half-maximal growth inhibitory concentration (GI50) for each test compound.
# [1] = test system: T-Rex 293 cell line SC3 cells lacking increased expression of androgen receptor protein; test: Cellular growth inhibition assay, T-Rex 293 SC3 cells without doxycycline (CellTiter-Glo, 72 hours); type: cell-based; settings: T-Rex 293 cell line SC3 cells not exposed to doxycycline (lacking increased androgen receptor expression)
# Description: (§4) The following types of cells were prepared for this experiment: (i) a T-Rex 293 cell line having increased expression of androgen receptor protein due to exposure to doxycycline and (ii) a T-Rex 293 cell line lacking increased expression of androgen receptor protein. Ability of the test compounds to inhibit proliferation of the foregoing cell types was evaluated according to the procedures set forth below.
# (§5) The doxycycline-inducible androgen receptor protein expressing cell line was established using the following protocol: T-Rex 293 cells were purchased from Invitrogen (Cat #R71007) and transfected using Lipofectamine 2000 with the wild-type androgen receptor protein sequence cloned into the pcDNA4/TO vector. Transfected cells were selected using 400 μg/mL Zeocin (Invitrogen Cat #R25001). Following selection, single clones were raised and maintained in Dulbecco's Modified Eagle Medium (DMEM) supplemented with 10% w/w Tetracycline-free fetal bovine serum (FBS) and 250 μg/mL Zeocin. Clones were analyzed for expression of androgen receptor protein in the presence and absence of 10 ng/mL doxycycline (Sigma Cat #D9891), and a single doxycycline-inducible clone (hereinafter “SC3”) was selected for use in downstream assays.
# (§6) The SC3 cells were seeded on poly-D-lysine coated, black clear-bottom 384-well plates at 2500/well, in 25 μL Phenol Red Free Dulbecco's Modified Eagle Medium (DMEM) supplemented with 10% w/w charcoal-dextran treated fetal bovine serum (FBS) and 1% w/w pen-strep, with or without 10 ng/mL doxycycline. Pen-Strep is a commercially available mixture of penicillin G and streptomycin, which is used in mammalian cell culture media to prevent bacterial contamination. Phenol Red Free Dulbecco's Modified Eagle Medium (DMEM) supplemented with 10% w/w charcoal-dextran treated fetal bovine serum (FBS) and 1% w/w pen-strep, with or without 10 ng/mL doxycycline is herein referred to as Treatment Medium. Following seeding of cells in the plates, the plates were spun at 300×g for 30 seconds, then equilibrated to room temperature for 30 minutes, and then deposited in a humidified tissue culture incubator maintained at 37° C. with 5% CO2.
# as §1, §2, §3
# [2] = test system: T-Rex 293 cell line SC3 cells having increased expression of androgen receptor protein due to exposure to doxycycline; test: Cellular growth inhibition assay, T-Rex 293 SC3 cells with doxycycline (CellTiter-Glo, 72 hours); type: cell-based; settings: T-Rex 293 SC3 cells with increased androgen receptor expression due to doxycycline (10 ng/mL)
# Description: as §4, §5, §6, §1, §2, §3
Structure (SMILES),GI50 (VCaP cells) [nM],"GI50 (VCaP cells; Homo sapiens, VCaP, 72 h) [nM]",GI50 [1] [nM],GI50 [2] [nM],GI50 ([1]; 72 h) [nM],GI50 ([2]; 72 h) [nM]
Cc1sc2c(c1C)C(c1ccc(C3CCC4(CC3)CCN(c3ccc(C(=O)N[C@H]5CC[C@H](Oc6ccc(C#N)c(Cl)c6)CC5)nn3)C4)cc1)=NC(C(F)(F)F)c1nnc(C)n1-2 (mixture of isomers) [I-742],< 500,–,> 3000,> 3000,–,–
Cc1sc2c(c1C)C(c1ccc(NCC3CCN(c4ncc(C(=O)N[C@H]5CC[C@H](Oc6ccc(C#N)c(Cl)c6)CC5)cn4)C3)cc1)=NC(Cc1ncco1)c1nnc(C)n1-2 (mixture of isomers) [I-788],< 500,–,< 500,< 500,–,–
"Cc1sc2c(c1C)C(c1ccc(C#CC3CC4(C3)CN(c3ccc(C(=O)N[C@H]5CC[C@H](Oc6ccc(C#N)c(Cl)c6)CC5)nn3)C4)cc1F)=NC(Cc1ncco1)c1nnc(C)n1-2 (mixture of isomers) [I-828, N-[4-(3-chloro-4-cyano-phenoxy)cyclohexyl]-6-[6-[2-[3-fluoro-4-[4,5,13-trimethyl-9-(oxazol-2-ylmethyl)-3-thia-1,8,11,12-tetrazatricyclo[8.3.0.02,6]trideca-2(6),4,7,10,12-pentaen-7-yl]phenyl]ethynyl]-2-azaspiro[3.3]heptan-2-yl]pyridazine-3-carboxamide]",–,< 500,–,–,< 500,< 500
"COCC[C@@H]1N=C(c2ccc(C3CCC4(CC3)CCN(c3ccc(C(=O)N[C@H]5CC[C@H](Oc6ccc(C#N)c(Cl)c6)CC5)nn3)C4)cc2)c2c(sc(C)c2C)-n2c(C)nnc21 (single isomer, unassigned) [I-618]",< 500,–,< 500,< 500,–,–
"COCC[C@@H]1N=C(c2ccc(C3CCC4(CC3)CCN(c3ccc(C(=O)N[C@H]5CC[C@H](Oc6ccc(C#N)c(Cl)c6)CC5)nn3)C4)cc2)c2c(sc(C)c2C)-n2c(C)nnc21 (single isomer, unassigned) [I-619]",< 500,–,> 3000,< 500,–,–
"Cc1sc2c(c1C)C(c1ccc(Cl)cc1)=N[C@@H](CC(=O)NCCOCCOCCOCCOCCOCCOCCOC1CCN(c3ccc(C(=O)N[C@H]4CC[C@H](Oc5ccc(C#N)c(Cl)c5)CC4)nn3)CC1)c1nnc(C)n1-2 [I-4, N-[4-(3-chloro-4-cyano-phenoxy)cyclohexyl]-6-[14-[2-[2-[2-[2-[2-[2-[2-[[2-[(9S)-7-(4-chlorophenyl)-4,5,13-trimethyl-3-thia-1,8,11,12-tetrazatricyclo[8.3.0.2,6]trideca-2(6),4,7,10,12-pentaen-9-yl]acetyl]amino]ethoxy]ethoxy]ethoxy]ethoxy]ethoxy]ethoxy]ethoxy]-1-piperidyl]pyridazine-3-carboxamide]",–,< 500,–,–,> 3000,500 to 1500
Cc1sc2c(c1C)C(c1ccc(Cl)cc1)=N[C@@H](CC(=O)NCCCCCOC1CCN(c3ccc(C(=O)N[C@H]4CC[C@H](Oc5ccc(C#N)c(Cl)c5)CC4)nn3)CC1)c1nnc(C)n1-2 [I-5],–,< 500,–,–,< 500,< 500
CCNC(=O)C[C@@H]1N=C(c2cccc(OCCOCCOCCOC3CCN(c4ncc(C(=O)N[C@H]5CC[C@H](Oc6ccc(C#N)c(Cl)c6)CC5)cn4)CC3)c2)c2c(sc(C)c2C)-n2c(C)nnc21 [I-11],–,500 to 1500,–,–,> 3000,< 500
CCNC(=O)C[C@@H]1N=C(c2ccc(OCCCOC3CCN(c4ccc(C(=O)N[C@H]5CC[C@H](Oc6ccc(C#N)c(Cl)c6)CC5)nn4)CC3)cc2)c2c(sc(C)c2C)-n2c(C)nnc21 [I-14],–,< 500,–,–,< 500,< 500
CCNC(=O)C[C@@H]1N=C(c2ccc(CCCCCCOC3CCN(c4ccc(C(=O)N[C@H]5CC[C@H](Oc6ccc(C#N)c(Cl)c6)CC5)nn4)CC3)cc2)c2c(sc(C)c2C)-n2c(C)nnc21 [I-22],–,500 to 1500,–,–,500 to 1500,< 500
CCNC(=O)C[C@@H]1N=C(c2cccc(OCCOCCOC3CCN(c4ccc(C(=O)N[C@H]5CC[C@H](Oc6ccc(C#N)c(Cl)c6)CC5)nn4)CC3)c2)c2c(sc(C)c2C)-n2c(C)nnc21 [I-23],–,> 3000,–,–,1500 to 3000,< 500
Cc1sc2c(c1C)C(c1ccc(C#CC3CC4(CCCN(c5ccc(C(=O)N[C@H]6CC[C@H](Oc7ccc(C#N)c(Cl)c7)CC6)nn5)C4)C3)cc1)=NC1(CC1)c1nnc(C)n1-2 (some centres unmarked) [I-445],–,< 500,–,–,> 3000,–
COC[C@@H]1N=C(c2ccc(C3CCC4(CC3)CCN(c3ccc(C(=O)N[C@H]5CC[C@H](Oc6ccc(C#N)c(Cl)c6)CC5)nn3)C4)cc2)c2c(sc(C)c2C)-n2c(C)nnc21 (some centres unmarked) [I-601],–,< 500,–,–,–,< 500

# Continued, in another order:
GI50 (VCaP cells) [nM],"GI50 (VCaP cells; Homo sapiens, VCaP, 72 h) [nM]",Structure (SMILES),GI50 [1] [nM],GI50 [2] [nM],GI50 ([1]; 72 h) [nM],GI50 ([2]; 72 h) [nM]
1500 to 3000,–,"CC[C@@H]1N=C(c2ccc(C3CCC4(CC3)CCN(c3ccc(C(=O)N[C@H]5CC[C@H](Oc6ccc(C#N)c(Cl)c6)CC5)nn3)C4)cc2)c2c(sc(C)c2C)-n2c(C)nnc21 (single isomer, unassigned) [I-633]",< 500,< 500,–,–
< 500,–,"CC[C@@H]1N=C(c2ccc(C3CCC4(CC3)CCN(c3ccc(C(=O)N[C@H]5CC[C@H](Oc6ccc(C#N)c(Cl)c6)CC5)nn3)C4)cc2)c2c(sc(C)c2C)-n2c(C)nnc21 (single isomer, unassigned) [I-634]",500 to 1500,< 500,–,–
< 500,–,"Cc1sc2c(c1C)C(c1ccc(N3CCC4(CC3)CCN(c3ccc(C(=O)N[C@H]5CC[C@H](Oc6ccc(C#N)c(Cl)c6)CC5)nn3)C4)cc1)=NC(C(F)(F)F)c1nnc(C)n1-2 (single isomer, unassigned) [I-719]",> 3000,< 500,–,–
> 3000,–,"Cc1sc2c(c1C)C(c1ccc(N3CCC4(CC3)CCN(c3ccc(C(=O)N[C@H]5CC[C@H](Oc6ccc(C#N)c(Cl)c6)CC5)nn3)C4)cc1)=NC(C(F)(F)F)c1nnc(C)n1-2 (single isomer, unassigned) [I-720]",> 3000,> 3000,–,–
–,< 500,"Cc1sc2c(c1C)C(c1ccc(N3CCOC4(CCN(c5ccc(C(=O)N[C@H]6CC[C@H](Oc7ccc(C#N)c(Cl)c7)CC6)nn5)C4)C3)cc1)=N[C@@H](C)c1nnc(C)n1-2 (single isomer, unassigned) [I-827]",–,–,< 500,< 500
–,< 500,Cc1sc2c(c1C)C(c1ccc(N3CCC4(CCN(c5ccc(C(=O)N[C@H]6CC[C@H](Oc7ccc(C#N)c(Cl)c7)CC6)nn5)C4)C3)cc1)=N[C@@H](C)c1nnc(C)n1-2 (some centres unmarked) [I-512],–,–,< 500,–
–,< 500,Cc1sc2c(c1C)C(c1ccc(CC3CC(OC4CCN(c5ccc(C(=O)NC6CCC(Oc7ccc(C#N)c(Cl)c7)CC6)nn5)CC4)C3)cc1)=NC(C)c1nnc(C)n1-2 (centres unmarked) [I-588],–,–,–,–
–,< 500,Cc1sc2c(c1C)C(c1ccc(N3C[C@@H]4CN(c5ccc(C(=O)N[C@H]6CC[C@H](Oc7ccc(C#N)c(Cl)c7)CC6)nn5)C[C@H]4C3)cc1)=N[C@@H](C)c1nnc(C)n1-2 [I-677],–,–,–,< 500
–,< 500,COC[C@@H]1N=C(c2ccc(OC3CC4(CCCN(c5ccc(C(=O)N[C@H]6CC[C@H](Oc7ccc(C#N)c(Cl)c7)CC6)nn5)C4)C3)cc2)c2c(sc(C)c2C)-n2c(C)nnc21 (some centres unmarked) [I-693],–,–,< 500,–
